Assay results from patent US12590093B2, “Indolo[2′,3′:3,4]pyrido[2,1-b]quinazoline compound and use thereof” (INSTITUTE OF MEDICINAL BIOTECHNOLOGY CHINESE ACADEMY OF …, priority 2019, dated 2026).

Assays:
[1] = tested on: NLRP3 inflammasome; experiment: Western-blot of NLRP3 inflammasome proteins in liver of ApoE−/− mouse and J774A1 cells; assay type: in vivo, mice
Protocol: 6-week-old male C57/BL6 ApoE^−/− mice were fed on normal chaw diet for one week. The mice were randomly divided into three groups (control group, high-fat diet model group, and treatment group, 12 mice per group) according to the body weight. From 7-week-old, the high-fat diet model group and the treatment group were fed on a high fat diet (HFD) (0.15% cholesterol and 20% fat), and the control group was fed on normal chow diet. The treatment group (R3) mice were administered intragastrically with TR3 (5 mg/kg). The control group and the high-fat diet model group mice were intragastrically administered with sodium carboxymethylcellulose (CMC-Na) solution. After 12 weeks of administration, all mice were fasted overnight. The blood sample was taken from the retro-orbital plexus, collected in a EP tube, and then centrifuged for 15 min (2500 rpm). The centrifuged serum (upper layer) was transferred to new EP tubes (divided into two aliquots) and stored at −20° C. for further use. The mice were fixed, and the skin was cut open along the midline of the abdomen to the neck. The abdominal cavity was cut open to collect the fresh liver tissue. The Liver tissue was put into 3 freezing tubes, and then immediately put into liquid nitrogen for subsequent detection of liver lipid detection and extraction of RNA and protein. The thorax was cut open to expose the heart. The heart was perfused with 10 ml PBS, and then fixed by perfusion with 4% paraformaldehyde solution until the liver turned white. The fixed liver was taken out and placed in a six-well plate containing 4% paraformaldehyde solution for further fixation. The full-length aorta (from the ascending aorta to the common iliac arteries) was isolated and placed in a six-well plate containing 4% paraformaldehyde solution. The aorta was fixed in 4% paraformaldehyde solution overnight and then stored in 20% sucrose solution at 4° C.
(§1) When animal tissues were used to prepare protein samples, the tissues were firstly homogenized and lysed in the RIPA lysis buffer. The subsequent steps were the same as those for preparing protein samples from cells. When cell supernatants were used to prepare protein samples, the supernatants were freeze-dried, needed to be extracted using a protein recovery kit (Applygen, Beijing, China), and then analyzed by western-blot.
The western-blot was used to detect the effects of TR3 on the activation of NLRP3 inflammasome and other related proteins in the liver of ApoE^−/− mouse and J774A1 cells.

[2] = tested on: SR-BI; experiment: SR-BI protein expression in liver of ApoE−/− mice; assay type: in vivo; details: FIG. 10
Protocol: 6-week-old male C57/BL6 ApoE^−/− mice were fed on normal chaw diet for one week. The mice were randomly divided into three groups (control group, high-fat diet model group, and treatment group, 12 mice per group) according to the body weight. From 7-week-old, the high-fat diet model group and the treatment group were fed on a high fat diet (HFD) (0.15% cholesterol and 20% fat), and the control group was fed on normal chow diet. The treatment group (R3) mice were administered intragastrically with TR3 (5 mg/kg). The control group and the high-fat diet model group mice were intragastrically administered with sodium carboxymethylcellulose (CMC-Na) solution. After 12 weeks of administration, all mice were fasted overnight. The blood sample was taken from the retro-orbital plexus, collected in a EP tube, and then centrifuged for 15 min (2500 rpm). The centrifuged serum (upper layer) was transferred to new EP tubes (divided into two aliquots) and stored at −20° C. for further use. […]
as §1, with “The subsequent steps were the same as those for preparing protein samples from cells.” left out

[3] = tested on: ABCA1; experiment: ABCA1 up-regulation, luciferase reporter in ABCA1P-LUC HepG2 cells; assay type: cell-based; details: Homo sapiens, 18 h, maximum up-regulation fold of luciferase activity versus DMSO, read-out: ABCA1 max
Protocol: (§2) Experiments were conducted to detect whether the compounds of the disclosure can pharmacologically up-regulate the expression of ABCA1 and SR-BI. Firstly, ABCA1P-LUC HepG2 cells or SR-BI-LUC HepG2 cells in logarithmic growth phase were digested, diluted in cell culture medium, and counted. Cells were seeded into 96-well plates at a density of 5×10^5/ml (100 μL of the single-cell suspension per well). After cells fully adhered (about 6 h), the medium containing 10% FBS was removed, and the cells were gently washed with PBS. Serum free MEM-EBSS medium (200 μL per test well) and 2 μL of the compounds to be tested (at a final concentration of 10 μg/mL) were added to each test well, and meanwhile, DMSO at a corresponding concentration was added to the control well. After 18-24 h, the medium was removed. Cell Luciferase activity was measured by a method as described in the Luciferase Assay System. By optimizing the final concentration of DMSO, the treatment time of the compounds on the cells and the number of cells seeded into each well during the screening, the final screening conditions were determined as follows: each well is seeded with 5×10^4 cells, DMSO is added at a final concentration of 1%, and the sample is treated for 18 h.
(§3) The ratio of change of luciferase activity is calculated with the following formula: Ratio of change (%)=A/B×100;
(§4) wherein A is the luciferase activity (RLU) measured after the compound to be tested is added, and B is the luciferase activity (RLU) measured after the blank control (DMSO) is added. The luciferase activity of cells in each well was measured, and the dose-effect relationship between the concentration of the compound and the ratio of change of the luciferase activity was determined to calculate the EC50.

[4] = tested on: ABCA1; experiment: ABCA1 expression in RAW 264.7 cells by western-blot, with or without si-AMPK; assay type: cell-based, Murine
Protocol: Murine macrophages RAW 264.7 cells were subcultured about every 48 h. When the cells were approximately 100% confluent, the old culture medium was removed, and the cells were washed with PBS and digested with trypsin at an appropriate amount for about 2 min at RT. After the digestion solution was removed, the RPMI-1640 complete medium containing 10% FBS was added immediately to inhibit the activity of trypsin. The cells in the culture flask were repeatedly and gently blown with a curved straw, so that they were completely detached from the bottom of the flask and dispersed into the single-cell suspension. The cells were seeded into a new cell flask at a density of 1:4-1:6, and added with an appropriate amount of the complete medium. The flask was placed in an incubator and cultured at 37° C., 5% CO2. RAW264.7 cells were pretreated with si-AMPK (AMPK siRNA) for 24 h, and then treated with compound TR3 (1 μM) for 24 h. The expression of ABCA1 and AMPK was detected by western-blot.
The effect of TR3 on AMPK was detected by western-blot.

[5] = tested on: SR-BI; experiment: SR-BI up-regulation, luciferase reporter in SR-BI-LUC HepG2 cells; assay type: cell-based; details: Homo sapiens, 18 h, maximum up-regulation of luciferase activity versus DMSO, read-out: SR-BI max
Protocol: as §2, §3, §4

[6] = tested on: NLRP3 inflammasome; experiment: NLRP3 inflammasome in J774A.1 cells with MAPK agonist Anisomycin; assay type: cell-based; details: MAPK signaling pathway agonist Anisomycin added, FIG. 9
Excerpt: as §1
After that, the MAPK signaling pathway agonist Anisomycin and TR3 were added into J774A-1 cells.

[7] = liver of ApoE−/− mouse and J774A1 cells, western-blot, FIG. 6

c1ccc2c(c1)CN1CCc3c([nH]c4ccccc34)C1=N2 [TR3, 5,7,8,13-tetrahydroindolo[2′,3′:3,4]pyrido[2,1-b]quinazoline]
activation of NLRP3 inflammasome in the liver ([1]; liver of ApoE−/− mice): significantly inhibited | expression of Caspase-1 protein [1, 7]: significantly inhibited | expression of IL-1β protein [1, 7]: significantly inhibited | expression of NLRP3 protein [1, 7]: significantly inhibited | expression of SR-BI in the liver [2]: increased | maximal fold induction [3]: 2.26 | up-regulation of ABCA1 expression after addition of si-AMPK ([4]; RAW 264.7 cells pretreated with si-AMPK 24 h, then 1 μM for 24 h): inhibited by the addition of interfering RNA (si-AMPK) | expression of ABCA1 ([4]; RAW 264.7 cells, 1 μM, western-blot, FIG. 11): significantly up-regulated | maximal fold induction [5]: 2.07 | inhibitory effect on NLRP3, Caspase-1 and IL-1β with Anisomycin added [6]: reduced
